Test results as given in patent US20250041367A1, “BACTERIOPHAGES AND USE THEREOF FOR THE TREATMENT OR PREVENTION OF INFECTION CAUSED BY E. COLI” (Purdue Research Foundation, priority 2023, published 2025).

Columns and labels:
[1] = tested on: all other bacteria in the cecal samples; experiment: Chicken cecal samples on sorbitol-MacConkey agar supplemented with antibiotics; assay type: cell-based; details: streptomycin 64 ug/mL and gentamycin 32 ug/mL, overnight 37° C.
Method: (§1) As non-pathogenic E. coli are among the bacteria normally present in chickens' gastrointestinal tracts, potential antibiotic resistance selection markers in challenge APEC strains were identified by conducting antibiograms of each APEC strain in the library of APEC strains using a previously described micro-broth dilution method. 90 μL of Brain Heart Infusion broth was aliquoted into each well of 96-well plates. Antibiotics (specifically, kanamycin, gentamycin, neomycin, nalidixic acid, streptomycin, and ampicillin) were added to wells in order to establish an antibiotic concentration gradient spanning across each antibiotic's minimum inhibitory concentration (MIC) as reported by NARMS. […] Following incubation, the lowest concentration of each antibiotic that prevented visible bacterial growth was recorded as the MIC for that antibiotic. MICs were confirmed for each APEC strain by plating each strain on sorbitol-MacConkey agar supplemented with antibiotics at the determined MICs and incubating plates overnight at 37° C. The challenge APEC strain was then selected by incubating samples from chicken ceca on sorbitol-MacConkey agar supplemented with antibiotics at the determined MICs and incubating these samples overnight at 37° C. […]

[2] = tested on: APEC serotype O2:H4; experiment: Lytic capacity of the six-phage treatment compared with antibiotics (OD600); assay type: cell-based, Escherichia coli; details: APEC O2:H4, antibiotic at its minimum inhibitory concentration (NARMS), 1-4 hours
Method: The six APEC strains were individually inoculated into LB broth and incubated at 37° C. until they reached log-phase growth. Phages were added to the log-phase culture of their APEC host at an MOI of 10, and subsequent bacterial concentrations were determined by measuring the absorbance (OD600) of the culture at 1, 2, 3, and 4 hours post-phage application. One flask containing only bacterial culture was included as a negative control. Additional flasks containing both bacterial cultures and antibiotics (specifically, gentamycin sulfate, kanamycin sulfate, nalidixic acid, or chloramphenicol) at their respective minimum inhibitory concentrations (National Antibiotic Resistance Monitoring System (NARMS) 2019, antibiotics tested by NARMS) were included as positive controls. These lytic capacity experiments were conducted in triplicate for each of the phage types and their respective host APEC strains.

[3] = tested on: APEC strain O2:H4; experiment: Antibiogram by micro-broth dilution (MIC); assay type: cell-based, Escherichia coli; details: confirmed on sorbitol-MacConkey agar
Method: as §1

| Compound | growth of all other bacteria in the cecal samples [1] | OD600 readings of antibiotic-treated APEC cultures over time [2] | antibiotic concentration at which APEC strain O2:H4 is resistant [3] |
| --- | --- | --- | --- |
| gentamycin | prohibit the growth | increased over time | 32 µg/mL |
| [H]/N=C(/N)N[C@H]1[C@H](O)[C@@H](O)[C@H](O[C@@H]2O[C@@H](C)[C@](O)(C=O)[C@H]2O[C@@H]2O[C@@H](CO)[C@H](O)[C@@H](O)[C@@H]2NC)[C@@H](N/C(N)=N\[H])[C@@H]1O [streptomycin] | prohibit the growth |  | 64 µg/mL |
